Measured values as given in patent US6787125B1, “Compound screening method” (priority 1999, dated 2004).
Counter-ions that a name gives are not always drawn. Like-named read-outs stand apart in the source and are kept apart here.

Test system: C. elegans
Format: in vivo
Source text: Nematode worms that are placed in liquid culture will move in such a way that they maintain a more or less even (or homogeneous) distribution throughout the culture. Nematode worms that are defective in movement will precipitate to the bottom in liquid culture.
Advanced multi-well plate readers are able to detect sub-regions of the wells of multi-well plates. By using these plate readers it is possible to take measurements in selected areas of the surface of the wells of the multi-well plates. If the area of measurement is centralized, so that only the middle of the well is measured, a difference in nematode autofluorescence (fluorescence which occurs in the absence of any external marker molecule) or optical density can be observed in the wells containing nematodes that move normally as compared to wells containing nematodes that are defective for movement. For the wells containing the nematodes that move normally, a low level of autofluorescence or optical density will be observed, whilst a high level of autofluorescence or optical density can be observed in the wells that contain the nematodes that are defective in movement. Optical density is measured using a variation of the platelet aggregation assay, which is well known in the art. Using the MRX revelation device from Dynex (USA), optical density can be measured at multiple points per well, showing the precipitation pattern of the nematodes.
In an adaptation of the movement assay, autofluorescence or optical density measurements can be taken in two areas of the surface of the well, one measurement in the centre of the well, and on measurement on the edge of the well. Comparing the two measurements gives analogous results as in the case if only the centre of the well is measured but the additional measurement of the edge of the well results in an extra control and somewhat more distinct results.

CC(C)(Cc1c[nH]c2ccc(Cl)cc12)NCCOc1ccccc1OCC1CC1 [RS 17053]
movement assay reading, first number column (no head printed) (Table 10 c3): 14439
movement assay reading, second number column (no head printed) (Table 10 c4): 32050
hit call: detectable change in the movement behaviour (Table 10 c7): HIT

NC(CCP(=O)(O)O)C(=O)O [L-AP4]
movement assay reading, first number column (no head printed) (Table 10 c3): 19824
movement assay reading, second number column (no head printed) (Table 10 c4): 39523
hit call: detectable change in the movement behaviour (Table 10 c7): HIT

O=C(O)c1cc2ccccc2[nH]1 [Indole-2-carboxylic acid]
movement assay reading, first number column (no head printed) (Table 10 c3): 19362
movement assay reading, second number column (no head printed) (Table 10 c4): 43403
hit call: detectable change in the movement behaviour (Table 10 c7): HIT

N[C@@H](CCCP(=O)(O)O)C(=O)O [L-AP5]
movement assay reading, first number column (no head printed) (Table 10 c3): 21446
movement assay reading, second number column (no head printed) (Table 10 c4): 42393
hit call: detectable change in the movement behaviour (Table 10 c7): HIT

Oc1ccc2c3c1O[C@H]1c4c(c5ccccc5n4Cc4ccccc4)C[C@@]4(O)[C@@H](C2)N(CC2CC2)CC[C@]314 [N-Benzyl naltrindole]
movement assay reading, first number column (no head printed) (Table 10 c3): 14932
movement assay reading, second number column (no head printed) (Table 10 c4): 31760
hit call: detectable change in the movement behaviour (Table 10 c7): HIT

CCN(CC)CCOc1ccc(Cc2ccccc2)cc1 [DPPE]
movement assay reading, first number column (no head printed) (Table 10 c3): 20365
movement assay reading, second number column (no head printed) (Table 10 c4): 43629
hit call: detectable change in the movement behaviour (Table 10 c7): HIT

Cc1nccc2c1[nH]c1ccccc12 [Harmane HCl]
movement assay reading, first number column (no head printed) (Table 10 c3): 1843115
movement assay reading, second number column (no head printed) (Table 10 c4): 555251

NC(CCCCCC(=O)O)C(=O)O (racemic) [DL-2-Aminosuberic acid]
hit call: detectable change in the movement behaviour (in vivo): HIT
movement assay reading, first number column (no head printed) (in vivo): 17141
movement assay reading, second number column (no head printed) (in vivo): 33518

N[C@@H](CP(=O)(O)O)C(=O)O [L-AP3]
movement assay reading, first number column (no head printed) (Table 10 c3): 22073
movement assay reading, second number column (no head printed) (Table 10 c4): 41858
hit call: detectable change in the movement behaviour (Table 10 c7): HIT

COc1cc2nc(N3CCN(C(=O)c4ccco4)CC3)nc(N)c2cc1OC [Prazosin]
movement assay reading, first number column (no head printed) (Table 10 c3): 94689
movement assay reading, second number column (no head printed) (Table 10 c4): 113608
hit call: detectable change in the movement behaviour (Table 10 c7): HIT

CN(C)CCCn1cc(C2=C(c3c[nH]c4ccccc34)C(=O)NC2=O)c2ccccc21 [GF 109203X]
movement assay reading, first number column (no head printed) (Table 10 c3): 15685
movement assay reading, second number column (no head printed) (Table 10 c4): 34448
hit call: detectable change in the movement behaviour (Table 10 c7): HIT

S(-)-Atenolol
movement assay reading, first number column (no head printed) (Table 10 c3): 18176
movement assay reading, second number column (no head printed) (Table 10 c4): 36336
hit call: detectable change in the movement behaviour (Table 10 c7): HIT

CC(N)(COP(=O)(O)Oc1ccccc1)C(=O)O (stereo not shown) [MSOPPE]
movement assay reading, first number column (no head printed) (Table 10 c3): 23760
movement assay reading, second number column (no head printed) (Table 10 c4): 44614
hit call: detectable change in the movement behaviour (Table 10 c7): HIT

C=CC(N)CCC(=O)O (stereo not shown) [Vigabatrin]
movement assay reading, first number column (no head printed) (Table 10 c3): 20828
movement assay reading, second number column (no head printed) (Table 10 c4): 61410
hit call: detectable change in the movement behaviour (Table 10 c7): HIT

NC1(C(=O)O)CCCC1 [Cycloleucine]
movement assay reading, first number column (no head printed) (Table 10 c3): 19234
movement assay reading, second number column (no head printed) (Table 10 c4): 36560
hit call: detectable change in the movement behaviour (Table 10 c7): HIT

O=C(O)[C@@H]1C[C@@H](C(=O)O)N1 [tADA]
movement assay reading, first number column (no head printed) (Table 10 c3): 16096
movement assay reading, second number column (no head printed) (Table 10 c4): 32342
hit call: detectable change in the movement behaviour (Table 10 c7): HIT

NC(CCCP(=O)(O)O)C(=O)O [D-AP5]
movement assay reading, first number column (no head printed) (Table 10 c3): 19717
movement assay reading, second number column (no head printed) (Table 10 c4): 41697
hit call: detectable change in the movement behaviour (Table 10 c7): HIT

CC(=O)N1CCN(c2ccc(OCC3COC(Cn4ccnc4)(c4ccc(Cl)cc4Cl)O3)cc2)CC1 (stereo not shown) [Ketoconazole]
movement assay reading, first number column (no head printed) (Table 10 c3): 15803
movement assay reading, second number column (no head printed) (Table 10 c4): 33531
hit call: detectable change in the movement behaviour (Table 10 c7): HIT

CC(=O)N[C@@H](CC(=O)N[C@@H](CCC(=O)O)C(=O)O)C(=O)O [Spaglumic acid]
movement assay reading, first number column (no head printed) (Table 10 c3): 20295
movement assay reading, second number column (no head printed) (Table 10 c4): 38417
hit call: detectable change in the movement behaviour (Table 10 c7): HIT

N[C@@H](COP(=O)(O)O)C(=O)O [O-Phospho-L-serine]
movement assay reading, first number column (no head printed) (Table 10 c3): 20292
movement assay reading, second number column (no head printed) (Table 10 c4): 41086
hit call: detectable change in the movement behaviour (Table 10 c7): HIT

CC(=O)O[C@H](CC(=O)[O-])C[N+](C)(C)C [(n)-Acetylcarnitine]
movement assay reading, first number column (no head printed) (Table 10 c3): 23457
movement assay reading, second number column (no head printed) (Table 10 c4): 44156
hit call: detectable change in the movement behaviour (Table 10 c7): HIT

7-(Dimethylcarbamoyloxy)-6-phenylpyrrolo
movement assay reading, first number column (no head printed) (Table 10 c3): 14278
movement assay reading, second number column (no head printed) (Table 10 c4): 32900
hit call: detectable change in the movement behaviour (Table 10 c7): HIT

OCC(O)COc1cccc2ccccc12 (stereo not shown) [Propanolol glycol]
movement assay reading, first number column (no head printed) (Table 10 c3): 17134
movement assay reading, second number column (no head printed) (Table 10 c4): 34849

CC#CCOC(=O)C1=CCCN(C)C1 [Arecaidine but-2-ynyl ester]
movement assay reading, first number column (no head printed) (Table 10 c3): 20002
movement assay reading, second number column (no head printed) (Table 10 c4): 37675
hit call: detectable change in the movement behaviour (Table 10 c7): HIT

CC(C)(Oc1ccc(Cl)cc1)C(=O)O [Clofibric acid]
movement assay reading, first number column (no head printed) (Table 10 c3): 22933
movement assay reading, second number column (no head printed) (Table 10 c4): 40916
hit call: detectable change in the movement behaviour (Table 10 c7): HIT

NCC(O)COc1cccc2ccccc12 (stereo not shown) [N-desisopropyl propanolol]
movement assay reading, first number column (no head printed) (Table 10 c3): 23737
movement assay reading, second number column (no head printed) (Table 10 c4): 43102
hit call: detectable change in the movement behaviour (Table 10 c7): HIT

COc1ccc(CCN(C)CCc2ccc(OC)c(OC)c2)cc1OC [YS-035]
movement assay reading, first number column (no head printed) (Table 10 c3): 21415
movement assay reading, second number column (no head printed) (Table 10 c4): 42457
hit call: detectable change in the movement behaviour (Table 10 c7): HIT

N[C@H](C(=O)O)[C@H](CC(=O)O)c1ccc(Cl)cc1 [(2S,3R)-Chloropheg]
movement assay reading, first number column (no head printed) (Table 10 c3): 21514
movement assay reading, second number column (no head printed) (Table 10 c4): 48736
hit call: detectable change in the movement behaviour (Table 10 c7): HIT

CP(=O)(O)C1=CCNCC1 [TPMPA]
movement assay reading, first number column (no head printed) (Table 10 c3): 21792
movement assay reading, second number column (no head printed) (Table 10 c4): 120778
hit call: detectable change in the movement behaviour (Table 10 c7): HIT

COc1ccc(CNC(=O)/C=C/c2ccc3[nH]cc(CCN(C)C)c3c2)cc1 [GR 46611]
movement assay reading, first number column (no head printed) (Table 10 c3): 15815
movement assay reading, second number column (no head printed) (Table 10 c4): 33199
hit call: detectable change in the movement behaviour (Table 10 c7): HIT

O=C(O)[C@@H]1C[C@H](C(=O)O)N1 [cis-Azetidine-2,4-dicarboxylic acid]
movement assay reading, first number column (no head printed) (Table 10 c3): 19503
movement assay reading, second number column (no head printed) (Table 10 c4): 40568
hit call: detectable change in the movement behaviour (Table 10 c7): HIT

O=c1[nH]c2cc(Cl)ccc2c(O)c1-c1cccc(Oc2ccccc2)c1 [L-701,324]
movement assay reading, first number column (no head printed) (Table 10 c3): 14647
movement assay reading, second number column (no head printed) (Table 10 c4): 32476
hit call: detectable change in the movement behaviour (Table 10 c7): HIT

CCCCCCC(C)(C)c1cc(O)c2c(c1)OC(C)(C)[C@@H]1CC=C(CO)C[C@@H]21 [HU 210]
movement assay reading, first number column (no head printed) (Table 10 c3): 15481
movement assay reading, second number column (no head printed) (Table 10 c4): 33514
hit call: detectable change in the movement behaviour (Table 10 c7): HIT
